Laboratory results as given in PubChem BioAssay AID720598 (Broad Institute, 2013).

System: HT-29 viability, CellTiter-Glo ATP luminescence, 8-48 h
Experiment: HT-29 colorectal cell cytotoxicity over time, dose response, HRas target identification project, CellTiter-Glo, multiple timepoints, dry powder (AID 720598)

**Q.** What does the source list for `C#CCCCC(=O)NCCOCCOCCOc1ccc(N(C(=O)CCl)C(C(=O)NCCc2ccccc2)c2cccs2)cc1Cl` (stereo unspecified)?
**A.** AC50 (measured here: 8 h treatment): 11.9 µM; AC50 (measured here: 24 h treatment): 1.51 µM; AC50 (measured here: 48 h treatment): 1.3 µM

**Q.** With `COC(=O)c1ccc([C@@H]2c3[nH]c4ccccc4c3C[C@@H](C(=O)OC)N2C(=O)CCl)cc1` as the compound, how does the AC50 (measured here: 8 h treatment) read?
**A.** The AC50 was 0.486 µM.

**Q.** And the AC50 (measured here: 24 h treatment)?
**A.** Its AC50 is 0.133 µM.

**Q.** What about the AC50 (measured here: 48 h treatment) of the same compound?
**A.** The AC50 was 0.0856 µM.

**Q.** Which AC50 (measured here: 8 h treatment) does the source give for `CC(C)(C)OC(=O)NCCOCCOCCOc1ccc(N(C(=O)CCl)C(C(=O)NCCc2ccccc2)c2cccs2)cc1Cl` (stereo unspecified) here?
**A.** The AC50 was 0.742 µM.

**Q.** And the AC50 (measured here: 24 h treatment)?
**A.** The AC50 was 0.448 µM.

**Q.** And the AC50 (measured here: 48 h treatment)?
**A.** The AC50 was 0.287 µM.

**Q.** With `Cc1onc(C(=O)N2CCN(C(c3ccc(Cl)cc3)c3ccc(Cl)cc3)CC2)c1[N+](=O)[O-]` as the compound, how does the AC50 (measured here: 8 h treatment) read?
**A.** The AC50 was 2.76 µM.

**Q.** And the AC50 (measured here: 24 h treatment)?
**A.** The AC50 was 0.594 µM.

**Q.** What about the AC50 (measured here: 48 h treatment) of the same compound?
**A.** The AC50 was 0.544 µM.

**Q.** How did the AC50 (measured here: 48 h treatment) turn out when `CCC(=O)N(c1ccc(OC)c(Cl)c1)C(C(=O)NCCc1ccccc1)c1cccs1` (stereo unspecified) was run?
**A.** Its AC50 is > 70 µM.

**Q.** Which AC50 (measured here: 8 h treatment) does the source give for `COc1ccc(N(C(=O)CCl)C(C(=O)NCCc2ccccc2)c2cccs2)cc1Cl` (stereo unspecified) here?
**A.** The AC50 was 0.729 µM.

**Q.** And the AC50 (measured here: 24 h treatment)?
**A.** Its AC50 is 0.103 µM.

**Q.** And the AC50 (measured here: 48 h treatment)?
**A.** Its AC50 is 0.0561 µM.
